Experimental data: ChEMBL document CHEMBL1157280, “Immunomodulatory principles of Dichrocephala bicolor” (J Nat Prod, 1999)
Converted amounts (≈) assume the structure as drawn. The source made the active and inactive calls. The calls are words filed in the database; no cut-off is given here.

What was measured:
[1] = (§1) Immunomodulatory activity in phytochemagglutininin-stimulatedHMNC assessed as IFN-gamma production after 3 days by EIA; type: functional, Homo sapiens
Homo sapiens [2] = species: Homo sapiens; assay: as §1; type: functional
[3] = (§2) Immunomodulatory activity in resting HMNC assessed as IFN-gamma production after 3 days by EIA; type: functional, Homo sapiens
Homo sapiens [4] = species: Homo sapiens; assay: as §2; type: functional
Homo sapiens [5] = species: Homo sapiens; assay: Immunomodulatory activity in phytochemagglutininin-stimulatedHMNC assessed as IFN-gamma production at 10 ug/mL after 3 days by EIA realtive to control; type: functional
[6] = Induction of phytohemagglutininin-activated HMNC proliferation assessed as [3H]thymidine uptake after 3 days by lymphoproliferation test; type: functional, Homo sapiens
Homo sapiens [7] = species: Homo sapiens; assay: Induction of phytohemagglutininin-activated HMNC proliferation assessed as [3H]thymidine uptake at 10 ug/mL after 3 days by lymphoproliferation test relative to control; type: functional
Homo sapiens [8] = species: Homo sapiens; assay: Induction of resting HMNC proliferation assessed as [3H]thymidine uptake at 10 ug/mL after 3 days by lymphoproliferation test relative to control; type: functional
Homo sapiens [9] = species: Homo sapiens; assay: Immunomodulatory activity in resting HMNC assessed as IFN-gamma production at 10 ug/mL after 3 days by EIA realtive to control; type: functional
[10] = Induction of resting HMNC proliferation assessed as [3H]thymidine uptake after 3 days by lymphoproliferation test; type: functional, Homo sapiens

| SMILES | EC50 [1] [µg/mL] | Activity (Homo sapiens [2]) | EC50 [3] [µg/mL] | Activity (Homo sapiens [4]) | Activity (Homo sapiens [5]) | EC50 [6] [µg/mL] | Activity (Homo sapiens [7]) | Activity (Homo sapiens [8]) | Activity (Homo sapiens [9]) | EC50 [10] [µg/mL] |
| --- | --- | --- | --- | --- | --- | --- | --- | --- | --- | --- |
| O=C(/C=C/c1ccc(O)c(O)c1)O[C@H]1[C@@H](OC(=O)/C=C/c2ccc(O)c(O)c2)C[C@](O)(C(=O)O)C[C@@H]1O | 5 (≈ 9.68 µM) | Dose-dependent effect | 1.25 (≈ 2.42 µM) | Dose-dependent effect | Active | 8.1 (≈ 15.7 µM) | 78.4% | 726 cpm | 30.5 pg/mL | 4.4 (≈ 8.52 µM) |
| C[C@@H]1O[C@@H](OC[C@H]2O[C@@H](Oc3c(-c4ccc(O)c(O)c4)oc4cc(O)cc(O)c4c3=O)[C@H](O)[C@@H](O)[C@@H]2O)[C@H](O)[C@H](O)[C@H]1O |  |  |  |  |  |  | inactive | inactive |  |  |
| O=C(/C=C/c1ccc(O)c(O)c1)O[C@@H]1[C@@H](OC(=O)/C=C/c2ccc(O)c(O)c2)C[C@@](O)(C(=O)O)C[C@@H]1O |  |  |  |  |  |  | inactive | inactive |  |  |
| O=C(O)/C=C/c1ccc(O)c(O)c1 |  |  |  |  | inactive |  | inactive | inactive | inactive |  |
| O=C(/C=C/c1ccc(O)c(O)c1)O[C@@H]1C[C@](O)(C(=O)O)C[C@@H](OC(=O)/C=C/c2ccc(O)c(O)c2)[C@H]1O |  |  |  |  |  |  | inactive | inactive |  |  |
| CCOC(=O)[C@]1(O)C[C@H](OC(=O)/C=C/c2ccc(O)c(O)c2)[C@@H](OC(=O)/C=C/c2ccc(O)c(O)c2)[C@@H](O)C1 |  |  |  |  |  |  | inactive | inactive |  |  |
| O=C(/C=C/c1ccc(O)c(O)c1)O[C@@H]1C[C@](O)(C(=O)O)C[C@@H](O)[C@H]1O [CHLOROGENIC ACID] | 2.8 (≈ 7.9 µM) | Dose-dependent effect | 3.9 (≈ 11 µM) | Dose-dependent effect | Active | 4.9 (≈ 13.8 µM) | 97.9% | 910 cpm | 38.5 pg/mL | 1.54 (≈ 4.35 µM) |
| COC(=O)[C@]1(O)C[C@H](OC(=O)/C=C/c2ccc(O)c(O)c2)[C@@H](O)[C@@H](OC(=O)/C=C/c2ccc(O)c(O)c2)C1 |  |  |  |  |  |  | inactive | inactive |  |  |
